Measured values: article PMC7053825 (European journal of medicinal chemistry, 2020)

Tests used:
[1] = test system: HIV-1 NL4-3 virus; experiment: In vitro anti-HIV assay in TZM-bl cells; assay type: cell-based
[2] = in vitro; settings: human, microsomes
[3] = biological target: HIV-1NL4-3 capsid protein (CA hexamer); experiment: SPR binding to CA hexamer; settings: hexamer versus monomer
[4] = test system: NL4-3 Env pseudo-typed HIV-I virus; experiment: ELISA-based quantification of capsid; assay type: cell-based, HIV-1; settings: 10 μM compound, compared to the DMSO control
[5] = Human plasma stability assay; assay type: in vitro ADME
[6] = biological target: HIV-1 CA (Human immunodeficiency virus type 1 group M subtype B, UniProt P12493); experiment: In vitro capsid assembly assay; assay type: biochemical; settings: capsid 30 μM, compound 50 μM, 3M NaCl, compared to DMSO control

COc1ccc(N(C)C(=O)[C@H](Cc2ccccc2)NC(=O)Cn2cc(-c3ccccc3NC(=O)c3ccccc3OC)nn2)cc1 [6a-4, (S)-2-methoxy-N-(2-(1-(2-((1-((4-methoxyphenyl)(methyl)amino)-1-oxo-3-phenylpropan-2-yl)amino)-2-oxoethyl)-1H-1,2,3-triazol-4-yl)phenyl)benzamide]
fold decrease in antiviral activity ([1]; EC50 relative to 6a-2): 2.2 fold

COc1ccc(N(C)C(=O)[C@H](Cc2ccccc2)NC(=O)Cn2cc(-c3ccccc3NC(=O)c3cccc(OC)c3)nn2)cc1 [6a-5, (S)-3-methoxy-N-(2-(1-(2-((1-((4-methoxyphenyl)(methyl)amino)-1-oxo-3-phenylpropan-2-yl)amino)-2-oxoethyl)-1H-1,2,3-triazol-4-yl)phenyl)benzamide]
fold decrease in antiviral activity ([1]; EC50 relative to 6a-2): 3.4 fold

COc1ccc(C(=O)Nc2ccccc2-c2cn(CC(=O)N[C@@H](Cc3ccccc3)C(=O)N(C)c3ccc(OC)cc3)nn2)cc1 [6a-6, (S)-4-methoxy-N-(2-(1-(2-((1-((4-methoxyphenyl)(methyl)amino)-1-oxo-3-phenylpropan-2-yl)amino)-2-oxoethyl)-1H-1,2,3-triazol-4-yl)phenyl)benzamide]
EC50 ([1]; Human immunodeficiency virus 1, NL43, TZM-bl): > 16.2 µM

COc1ccc(N(C)C(=O)[C@H](Cc2ccccc2)NC(=O)Cn2cc(-c3ccccc3NC(=O)c3ccccc3F)nn2)cc1 [6a-9, (S)-2-fluoro-N-(2-(1-(2-((1-((4-methoxyphenyl)(methyl)amino)-1-oxo-3-phenylpropan-2-yl)amino)-2-oxoethyl)-1H-1,2,3-triazol-4-yl)phenyl)benzamide]
CLint scaled at 1 h [2]: 1400 mL/min/kg | difference in KD values for hexameric and monomeric CA [3]: no significant differences | reduction of p24 of the produced virus [4]: about 15% | remaining at 0 h [5]: 100%

COc1ccc(N(C)C(=O)[C@H](Cc2ccccc2)NC(=O)Cn2cc(-c3ccccc3NC(=O)c3cccc(F)c3)nn2)cc1 [6a-10, (S)-3-fluoro-N-(2-(1-(2-((1-((4-methoxyphenyl)(methyl)amino)-1-oxo-3-phenylpropan-2-yl)amino)-2-oxoethyl)-1H-1,2,3-triazol-4-yl)phenyl)benzamide]
difference in KD values for hexameric and monomeric CA [3]: no significant differences

COc1ccc(N(C)C(=O)[C@H](Cc2ccccc2)NC(=O)Cn2cc(-c3cccc(NC(C)=O)c3)nn2)cc1 [6b-1, (S)-2-(2-(4-(3-acetamidophenyl)-1H-1,2,3-triazol-1-yl)acetamido)-N-(4-methoxyphenyl)-N-methyl-3-phenylpropanamide]
fold decrease in antiviral activity ([1]; EC50 relative to 5b): 4.5 fold

COc1ccc(N(C)C(=O)[C@H](Cc2ccccc2)NC(=O)Cn2cc(-c3cccc(NC(=O)c4ccccc4)c3)nn2)cc1 [6b-2, (S)-N-(3-(1-(2-((1-((4-methoxyphenyl)(methyl)amino)-1-oxo-3-phenylpropan-2-yl)amino)-2-oxoethyl)-1H-1,2,3-triazol-4-yl)phenyl)benzamide]
fold decrease in antiviral activity ([1]; EC50 relative to 5b): 3.9 fold

COc1ccc(N(C)C(=O)[C@H](Cc2ccccc2)NC(=O)Cn2cc(-c3cccc(NC(=O)c4cccc(F)c4)c3)nn2)cc1 [6b-10, (S)-3-fluoro-N-(3-(1-(2-((1-((4-methoxyphenyl)(methyl)amino)-1-oxo-3-phenylpropan-2-yl)amino)-2-oxoethyl)-1H-1,2,3-triazol-4-yl)phenyl)benzamide]
fold better active ([1]; EC50 with respect to 6b-2): 1.3 fold

Cc1[nH]c2ccccc2c1CC(=O)N[C@@H](Cc1ccccc1)C(=O)N(C)c1ccccc1 [PF-74]
effect on in vitro assembly of HIV-1 CA [6]: accelerated the assembly of HIV-1 CA | CLint scaled at 1 h [2]: 2160 mL/min/kg

CC(C)[N+](C)(CCOC(=O)C1c2ccccc2Oc2ccccc21)C(C)C [Propantheline bromide, reference compound]
remaining at 0 h [5]: 100%

C[C@]12CC[C@H]3[C@@H](CCC4=CC(=O)CC[C@@]43C)[C@@H]1CC[C@@H]2O [Testosterone]
Remaining (T=60min) (HLM 0.5 mg protein/mL): 3.6% | Remaining (NCF=60min) (HLM, no cofactor (no NADPH regenerating system)): 74.4% | CLint scaled at 1 h [2]: 169 mL/min/kg
